These results are taken from paper PMC11435093, “Synthesis and Evaluation of ^99mTc(CO)3 Complexes with Ciprofloxacin Dithiocarbamate for Infection Imaging” (Pharmaceutics, 2024).

Data set [1] is described as follows: Cysteine and histidine challenge (transchelation). Type of data set: physicochemical. To be noted: 37 °C, 6 h. The protocol:
(§1) The preparation of the ^99mTc-labeled complexes from synthesis to HPLC purification was completed within 1.5 h. Then, the stability of HPLC purified technetium-99m complexes 1′–6, with an RCP of 99% (based on HPLC), was assessed by monitoring their RCP over time and under various conditions using HPLC analysis based on established literature methods and is briefly described here.
Challenge experiments were performed by incubating the purified complexes with 10^−3 M solutions of cysteine and histidine at 37 °C. For each complex (1′–6′), 0.2 mL of the purified complex was mixed with 0.2 mL of the cysteine or histidine solution and incubated for 6 h. Aliquots were taken at the end of the incubation period and analyzed by HPLC.

In data set [2] the test system is Swiss Albino mice with induced infection (Staphylococcus aureus) and aseptic inflammation (turpentine). The data set can be described thus: Biodistribution in mice with induced infection and aseptic inflammation. The format is in vivo. How it is done: The in vivo behavior of HPLC purified technetium-99m complexes 1′–6′ was evaluated through biodistribution studies in Swiss Albino mice (40 ± 5 g) with induced infection and aseptic inflammation. The experiment was conducted in accordance with the guidelines for the protection of animals used for scientific purposes. Mice were divided into groups and prepared for biodistribution studies by inducing infection and aseptic inflammation. Twenty-four hours prior to the injection of the technetium complexes, the left thigh muscle of each mouse was inoculated with 50 µL of a Staphylococcus aureus suspension (1 × 10^6 CFU/mL) to induce infection. Aseptic inflammation was induced in the right thigh muscle by injecting 50 µL of turpentine oil. The technetium-99m complexes were administered intravenously via the tail vein. Each mouse received an injection of 0.037 MBq of the respective technetium-99m complex. The biodistribution was studied at two different time points, 15 min and 120 min post-injection. At each time point, the mice were sacrificed under anesthesia. Blood samples were obtained by cardiac puncture. The organs of interest were collected after dissection, including the liver, heart, kidneys, stomach, intestines, spleen, muscle (normal, infected, and inflamed), lungs, pancreas, and urinary bladder. The organs were made free from adhering tissues and transferred into pre-weighed counting vials. The radioactivity of the collected samples was measured using a shielded well-type gamma counter. The results were expressed as a percentage of injected dose per gram of tissue (% ID/g). The radioactivity ratios in infected muscle to normal muscle and inflamed muscle to normal muscle were calculated to assess the specificity and selectivity of the technetium complexes for infection and inflammation.

The nature of data set [3]: Lipophilicity: partition between n-octanol and PBS pH 7.4. The format is physicochemical. Conditions: n-octanol/PBS pH 7.4, M: 99mTc, three determinations. How it is done: The lipophilicity of HPLC purified technetium-99m complexes 1′–6′ was determined by measuring the partition coefficient (logD7.4) between n-octanol and phosphate-buffered saline (PBS, pH 7.4) based on established literature methods and is briefly described here. An aliquot of each technetium-99m complex was added to a mixture of equal volumes (2.0 mL each) of n-octanol and PBS (pH 7.4) in a 5 mL centrifuge tube. The mixture was vigorously vortexed for 2 min and then centrifuged at 5000 rpm for 5 min to ensure complete phase separation. After centrifugation, 0.1 mL aliquots from both the n-octanol and PBS phases were sampled and their radioactivity was measured using a gamma counter. The log P was calculated using the following equation: […]. The procedure was repeated three times for each complex to ensure reproducibility.

A short description of data set [4]: Stability of HPLC-purified 99mTc complexes (HPLC). The format is physicochemical. To be noted: HPLC-purified complex, room temperature, periodic HPLC. The protocol: as §1
After purification by HPLC, the stability of the isolated technetium-99m complexes was evaluated over 6 h. The purified complexes were stored at room temperature, and aliquots were taken at 1, 3, and 6 h for HPLC analysis.

Consider “fac-[^99mTc(CO)3(Cip-DTC)(H2O)] [complex 1′]”, for which the stability in cysteine in data set [1] (10^-3 M cysteine) is on record as 90%. In data set [1] (10^-3 M histidine), this substance displayed a stability in histidine of 91%. Further, in data set [2] (15 min post i.v. injection), the “Infection (S. aureus infected muscle) radioactivity” value is 1.06 ± 0.20 %ID/g, the Intestines radioactivity came to 0.71 ± 0.11 %ID/g, the Kidneys radioactivity is reported as 5.16 ± 0.32 %ID/g and the Liver radioactivity turned out to be 22.05 ± 1.40 %ID/g. For the same substance, in data set [2] (15 min post i.v. injection), the Lungs radioactivity was 6.41 ± 1.14 %ID/g, the “Muscle (normal) radioactivity” value came to 0.18 ± 0.02 %ID/g, the Pancreas radioactivity was 0.91 ± 0.04 %ID/g and the Spleen radioactivity is reported as 9.79 ± 1.69 %ID/g. Besides, the Stomach radioactivity in data set [2] (15 min post i.v. injection) came to 0.91 ± 0.20 %ID/g. For the same substance, in data set [2] (120 min post i.v. injection), the Kidneys radioactivity is 5.76 ± 0.65 %ID/g, the Liver radioactivity turned out to be 25.96 ± 2.23 %ID/g, the Lungs radioactivity was determined as 4.33 ± 0.41 %ID/g and the “Muscle (normal) radioactivity” value came to 0.18 ± 0.01 %ID/g. The Spleen radioactivity in data set [2] (120 min post i.v. injection) worked out at 5.24 ± 0.45 %ID/g. Moreover, in data set [2] (within 120 min), the “blood clearance / blood radioactivity course” value is “slow blood clearance”. Moreover, the LogD7.4 in data set [3] came out at 1.2. Also, in data set [4], the “stability post-purification (integrity, HPLC)” value came to 92%.
